# Measurements as given in US8258104B2, “Method and composition for treating allergic diseases” (Wholesome Biopharm Pty Ltd., priority 2006, dated 2012).
# Assays:
# Format in all cases: in vivo, BALB/c mice
# OVA-sensitized mice [1] = assay: Lung tissue histology (hematoxylin and eosin, light microscope); settings: ribavirin 30 and 10 mg/ml; FIG. 4
# Procedure: (§1) Female BALB/c mice were obtained and maintained in the Animal Center of the College of Medicine of National Taiwan University (Taiwan, R.O.C.). Animals were used between 6 and 10 weeks of age and were age matched within each experiment. Animal experiment protocol was approved by Animal Committee of the College of Medicine of National Taiwan University (Taiwan, R.O.C.).
# (§2) Mice were randomly divided into 4 groups and sensitized by an intraperitoneal injection of OVA (10 μg), which were complexed with aluminum potassium sulfate (alum, 2 mg) on day 0. All mice were boosted with another shot of OVA (10 μg) on day 14 and day 28, respectively. The mice in the negative control group were injected with phosphate buffer solution (PBS). As to the mice in the rest three groups, each group received 20 μl of 0, 10 or 30 mg/ml ribavirin together with intranasal challenge of 0.05 mg of OVA on days 38-40, respectively. AHR for mice in each group was measured on day 41, and all mice were bled and sacrificed on day 42, when the experiment ended. FIG. 1 illustrated the timeline of the above-identified OVA protocol used in this study.
# After the lavage, the lungs were immediately removed and fixed in 10% neutral-buffered formalin, routinely processed, and embedded in paraffin wax. […]
# OVA-sensitized mice [2] = assay: Airway hyper-responsiveness (AHR) to aerosolized methacholine, whole-body plethysmography (Penh); settings: intranasal ribavirin 10 or 30 mg/ml, Mch 0-50 mg/ml, FIG. 2
# Procedure: as §1
# Mice were randomly divided into 4 groups and sensitized by an intraperitoneal injection of OVA (10 μg), which were complexed with aluminum potassium sulfate (alum, 2 mg) on day 0. All mice were boosted with another shot of OVA (10 μg) on day 14 and day 28, respectively. The mice in the negative control group were injected with phosphate buffer solution (PBS). […] AHR for mice in each group was measured on day 41, and all mice were bled and sacrificed on day 42, when the experiment ended. […]
# The effect of ribavirin on airway responsiveness to aerosolized methacholine (Mch) in OVA-sensitized mice were assessed by the following procedures. […] Each reading was taken for 3 minutes and averaged for the entire time course after nebulization. Calculated Data were expressed as the fold increases above saline challenge baseline values using the dimensionless parameter Penh as described. […]
# OVA-sensitized mice [3] = assay: Chemokine/cytokine levels in BAL fluid by ELISA
# Procedure: as §1, §2
# OVA-sensitized mice were lavage according to the procedure described above, and the levels of chemokines were assayed by an ELISA kit (R&D) in accordance with the manufacturer's instructions. Take the measurement of eotaxin as an example, the BAL fluid was collected and added to wells precoated with anti-eotaxin antibodies over night at 4° C. After incubation for 2 hours, the plates were washed and biotin-conjugated antibodies were added. After two more hours at room temperature, HRP-avidin was then added, and the OD (at 450 nm) values were converted to concentrations of eotaxin in the BALF. The level of other chemokines including KC, IL-4 and INF-γ may be measured according to similar procedures. Results were illustrated in FIG. 5.
# OVA-sensitized mice [4] = assay: Cellular composition of bronchoalveolar lavage (BAL) fluid (airway eosinophilic inflammation); settings: ribavirin 10 or 30 mg/ml intranasal
# Procedure: as §1, §2
# Whether ribavirin could alleviate airway inflammation in OVA-sensitized mice was determined by analyzing the cellular composition in the bronchoalveolar lavage (BAL) fluid of the sensitized mice 48 hours a the last challenge. In brief, all groups of OVA sensitized mice were bled from the retro-orbital venous plexus and sacrificed. The lung was immediately lavaged via the trachea cannula with 3×1 ml of HBSS, free of ionized calcium and magnesium. The lavage fluid was centrifuged at 400 xg for 10 minutes at 4° C. After washing, the cells were resuspended in 1 ml HBSS and total cells counts were determined by use of a hemocytometer. Cytocentrifuged preparations were stained with Liu's stain for different cell counts. A minimum of 200 cells was counted and classified as macrophages, lymphocytes, neutrophils and eosinophils, based on standard morphological criteria. Results were illustrated in FIG. 3. […] On the contrary, treatment of ribavirin (10 or 30 mg/ml) decreased not only the total cell counts (FIG. 3A), but also the number of respective cell types including monocytes, neutrophils, and eosinophiles (FIG. 3B).
structure (smiles),measurement,setting,value
NC(=O)c1ncn([C@@H]2O[C@H](CO)[C@@H](O)[C@H]2O)n1 [ribavirin],infiltration of cells in the lung,OVA-sensitized mice [1],efficiently inhibit the infiltration of the cells
same,pathological damage within the lung,OVA-sensitized mice [1],reduce the pathological damage within the lung
same,airway responsiveness to Mch (Penh),OVA-sensitized mice [2],inhibited the increase in airway responsiveness to Mch
same,level of IF-γ in BAL fluid,OVA-sensitized mice [3]; FIG. 5a,not affected
same,level of IL-4 in BAL fluid,OVA-sensitized mice [3]; FIG. 5b,not affected
same,level of KC in BAL fluid,OVA-sensitized mice [3]; FIG. 5c,significant reduced
same,level of eotaxin in BAL fluid,OVA-sensitized mice [3]; FIG. 5d,significant reduced
same,total cell counts in BAL fluid,"OVA-sensitized mice [4]; 48 hours after last challenge, FIG. 3A",decreased
same,number of eosinophils in BAL fluid,OVA-sensitized mice [4]; FIG. 3B,decreased
same,number of monocytes in BAL fluid,OVA-sensitized mice [4]; FIG. 3B,decreased
same,number of neutrophils in BAL fluid,OVA-sensitized mice [4]; FIG. 3B,decreased
